In patent US6001383A (priority 1994, dated 1999):
Like-named read-outs stand apart in the source and are kept apart here.

What was measured:
[1] = tested on: Rhyzopertha dominica (F.), strain Rd2; details: R. dominica adults, cited from earlier work
[2] = cited from earlier work; for carcinogenicity: Sax and Lewis, 1989; for TLV value: worker safety limit
[3] = cited from earlier work
[4] = tested on: Cryptotermes cyanocephalos; assay: Toxicity to dry wood termites, C. cyanocephalos; assay type: in vivo; details: 24 h, 30° C., survival after one week
Method: (§1) Termites were obtained from cultures kept at 30° C. and 80% RH. Termites were transferred to 120 mL bottles fitted with Mininert valved lids and a 325 mg chip of plywood and sealed whilst at 80% RH and 30° C. All fumigations were performed in duplicate with a sample size of 10-11 insects for C. brevis, 25 insects for C. cyanocephalos and 22 insects for C. domesticus. An appropriate volume of air was removed from the sample bottles prior to the addition of fumigants. Dosed samples were analysed on a gas chromatograph to ensure concentrations were as predicted. A second set of gas chromatograph readings was taken prior to airing to ensure fumigant concentrations had remained static throughout the exposure period. […]
(§2) C2 N2 concentrations were measured on a Varian 3300 Gas Chromatograph equipped with a Thermionic Specific Detactor after separation on a DBwax column of internal diameter 0.53 mm. Phosphine concentrations were measured on a Shimadzu 6AM equipped with a Flame Photometric Detector. Methyl bromide concentrations were measured on a Shimadzu 6AM equipped with a Flame Ionisation Detector after separation on a GasChromQ with 20% OV-IO1 column.
(§3) After 24 hours exposure, termites and wood chips were transferred to plastic Petri dishes each containing a large piece of plywood. Initial and one week survivals were recorded.

Cryptotermes brevis = assay: Toxicity to dry wood termites, C. brevis; assay type: in vivo; details: 24 h, 30° C., survival after one week
Method: as §1, §2, §3

Cryptotermes domesticus = assay: Toxicity to dry wood termites, C. domesticus; assay type: in vivo; details: 24 h, 30° C., survival after one week
Method: as §1, §2, §3

[5] = Sorption and desorption on wheat, comparative; details: 25 g wheat; C2 N2 10 mg/L, phosphine 2 mg/L, methyl bromide 32 mg/L
Method: Samples of wheat (25 g) were placed in 250 mL conical flasks of known volume. The flasks were stoppered with a gas tight stopper containing a rubber septum (injection port). Flasks were dosed with C2 N2 (10 mg/L), phosphine (2 mg/L) or methyl bromide (32 mg/L). After 24 h the headspace concentrations were determined by gas chromatography. Each flask was then opened and the wheat sample aired briefly by pouring the wheat from one container to another and then the remaining sorbed fumigant was estimated by grinding the wheat sample in a gas-tight Waring blender canister fitted was a sampling port and determining the released fumigant by head space analysis.

Leucadendron = assay: Phytotoxicity to cut flowers, Leucadendron; details: methyl bromide 30 mg L^-1, 2 h; control 7
Method: (§4) Field Carnations and Leucadendrons were purchased from a local wholesale florist. […]
(§5) After 2 hours the drums were opened and allowed to air in a fume hood, the flowers were removed from the drums, the stems trimmed and the bunches placed in water and left in the fume hood to air for 2 hours then placed in a cool room.
(§6) Assessment of the phytoxicity of the fumigants was done after one week of cold storage.
(§7) The phytoxicity assessments were made by a panel of six people who were asked independently to give a value out of 10 (Where 10 is excellent and 1 is unsaleable) for each flower and each treatment. The figures given below are the averaged results.

Carnation = assay: Phytotoxicity to cut flowers, Carnation; details: methyl bromide 30 mg L^-1, 2 h; control 5
Method: as §4, §5, §6, §7

Which “CT product for control of adults” value ([1]; Monro, 1967) does the source give for `S=C=S` [carbon disulphide] here?
Its value is 294.0 mghL^-1.

For `O=C=S` [carbonyl sulphide], which “CT product for control of adults” value ([1]; Desmarchelier 1994) is on record?
The value was 68.7 mghL^-1.

With `ClCCCl` [ethylene dichloride] as the compound, how does the “CT product for control of adults” value ([1]; Monro, 1967) read?
The value was 636.0 mghL^-1.

With `C1CO1` [ethylene oxide] as the compound, how does the carcinogenicity [2] read?
Its carcinogenicity is “suspect carcinogen”.

What about the TLV value [2] of the same compound?
The TLV value was 0.1 ppm.

And the “solubility in water” value [3]?
Its value is “poorly soluble in water”.

What does the source list for `C=O` [formaldehyde]?
carcinogenicity [2]: suspect carcinogen; TLV value [2]: 1 ppm

For `CBr` [methyl bromide], which “applied concentration giving 100% mortality” value [4] is on record?
Its value is 3.47 mgL^-1.

And the “applied concentration giving 100% mortality” value (Cryptotermes brevis)?
The value was 1.74 mgL^-1.

What about the “applied concentration giving 100% mortality” value (Cryptotermes domesticus) of the same compound?
The value was 4.35 mgL^-1.

And the “initial fumigant remaining in headspace after 24 h” value [5]?
The value was 69%.

And the “phytotoxicity score (10 excellent, 1 unsaleable)” value (Leucadendron)?
Its value is 6.

What about the “phytotoxicity score (10 excellent, 1 unsaleable)” value (Carnation) of the same compound?
Its value is 3.

And the “CT product for control of adults” value ([1]; Monro, 1967)?
The value was 33.0 mghL^-1.

Which results are given for `P` [phosphine]?
applied concentration giving 100% mortality [4]: 0.43 mgL^-1; applied concentration giving 100% mortality (Cryptotermes brevis): 0.43 mgL^-1; applied concentration giving 100% mortality (Cryptotermes domesticus): 0.22 mgL^-1; initial fumigant remaining in headspace after 24 h [5]: 91%
